≈ marks a conversion by molar mass, not a printed value. Read-outs that look alike come from different tables or passages of the source.
Assays:
[1] = system: Aspergillus fumigatus IAM 2034; test: In vitro antifungal activity (MIC), agar dilution method, 11-xylosyl precursors; assay type: cell-based; settings: 10^6 cells/ml, 28°C, 40 hrs
Description: (§1) The in vitro antifungal activities of pradimicins T1 and T2 and 11-0-dexylosylpradimicin T1 were determined by the agar dilution method on yeast morphology agar containing 1/15M phosphate buffer (pH 7.0).

Candida albicans A9540 [2] = test: as above; assay type: cell-based; settings: yeast morphology agar + 1/15M phosphate buffer (pH 7.0), 10^6 cells/ml, 28°C, 40 hrs
Description: as §1

[3] = system: Candida albicans ATCC 32354 (B311); test: as above; assay type: cell-based; settings: 10^6 cells/ml, 28°C, 40 hrs
Description: as §1

[4] = system: Candida albicans ATCC 38247; test: as above; assay type: cell-based; settings: 10^6 cells/ml, 28°C, 40 hrs
Description: as §1

[5] = system: Candida tropicalis 85-8 (Kitasato); test: as above; assay type: cell-based; settings: yeast morphology agar + 1/15M phosphate buffer (pH 7.0), 10^6 cells/ml, 28°C, 40 hrs
Description: as §1

[6] = system: Candida tropicalis IFO 10241; test: as above; assay type: cell-based; settings: 10^6 cells/ml, 28°C, 40 hrs
Description: as §1

[7] = system: Cryptococcus neoformans D49; test: as above; assay type: cell-based; settings: yeast morphology agar + 1/15M phosphate buffer (pH 7.0), 10^6 cells/ml, 28°C, 40 hrs
Description: as §1

[8] = system: Cryptococcus neoformans IAM 4514; test: as above; assay type: cell-based; settings: 10^6 cells/ml, 28°C, 40 hrs
Description: as §1

[9] = system: Saccharomyces cerevisiae ATCC 9763; test: as above; assay type: cell-based; settings: 10^6 cells/ml, 28°C, 40 hrs
Description: as §1

[10] = system: Trichophyton mentagrophytes 4329; test: as above; assay type: cell-based; settings: yeast morphology agar + 1/15M phosphate buffer (pH 7.0), 10^7 cells/ml, 28°C, 60 hrs
Description: as §1

[11] = system: Candida albicans A9540 systemic infection; test: In vivo efficacy against systemic infection in mice; design: species or system male ICR mice; settings: for ED50: Candida albicans, iv, 480 h, read-out: PD50; for PD50: C. albicans A9540 systemic infection, male ICR mice, single intravenous dose immediately after challenge, survival rate 20 days after infection
Description: (§2) Pradimicins T1 and T2 were evaluated for in vivo efficacy against a Candida albicans A9540 systemic infection in male ICR mice (20-24 g body weight) as described by Oki et al. in "Water-soluble pradimicin derivatives, synthesis and antifungal evaluation of N,N,-dimethyl pradimicins", J. Antibiotics 43:1230-1235, 1990. Five mice at each dose level were challenged intravenously with ten times the 50% lethal dose of the pathogen suspended in saline. Antibiotics were intravenously administered once immediately after the fungal challenge. Infection control animals (n=10) died from 7 to 12 days. The 50% protective dose (PD₅₀) was calculated from the survival rate 20 days after the fungal infection. The acute toxicity of pradimicins T1 and T2 was determined in mice after a single intravenous dose.

[12] = system: Candida albicans 83-2-14 (Juntendo); test: In vitro antifungal activity (MIC), agar dilution method, 11-xylosyl precursors; assay type: cell-based; settings: yeast morphology agar + 1/15M phosphate buffer (pH 7.0), 10^6 cells/ml, 28°C, 40 hrs
Description: as §1

[13] = Acute toxicity in mice after a single intravenous dose; assay type: in vivo
Description: as §2

Candida albicans A9540 [14] = test: In vitro antifungal activity (MIC), agar dilution on yeast morphology agar; assay type: cell-based; settings: YMA, 0.06M phosphate (pH 7.0), 28°C, 40 hours, read-out: MIC Ca-4
Description: (§3) The in vitro antifungal activity (MIC) of the compounds of the invention was determined on yeast morphology agar (YMA, Difco Laboratories, USA), buffered with 0.06M phosphate (pH 7.0). Nine parts of molten agar were combined with one part of antibiotic dilution in petri dishes. A 5-µl suspension containing 2x10⁶ cells/ml was spotted on the surface of the agar plates. The plates were incubated at 28°C and MICs were recorded after 40 hours of the incubation. All of the 11-hydroxy derivatives of Formula I-I are active against a wide range of fungi.

[15] = system: Candida tropicalis IFO10241; test: as above; assay type: cell-based; settings: YMA, 0.06M phosphate (pH 7.0), 28°C, 40 hours, read-out: MIC Ct-12
Description: as §3

[16] = system: Cryptococcus neoformans IAM4514; test: as above; assay type: cell-based; settings: YMA, 0.06M phosphate (pH 7.0), 28°C, 40 hours, read-out: MIC Cn-2
Description: as §3

[17] = IAM2034, yeast morphology agar + 1/15M phosphate buffer (pH 7.0), read-out: MIC
[18] = ATCC32354, yeast morphology agar + 1/15M phosphate buffer (pH 7.0), read-out: MIC
[19] = ATCC38247, yeast morphology agar + 1/15M phosphate buffer (pH 7.0), read-out: MIC
[20] = IFO10241, yeast morphology agar + 1/15M phosphate buffer (pH 7.0), read-out: MIC
[21] = IAM4514, yeast morphology agar + 1/15M phosphate buffer (pH 7.0), read-out: MIC
[22] = ATCC9763, yeast morphology agar + 1/15M phosphate buffer (pH 7.0), read-out: MIC
[23] = yeast morphology agar + 1/15M phosphate buffer (pH 7.0)

| Compound | MIC [1, 17] [µg/mL] | MIC (Candida albicans A9540 [2]; read-out: MIC) [µg/mL] | MIC [3, 18] [µg/mL] | MIC [4, 19] [µg/mL] | MIC ([5]; read-out: MIC) [µg/mL] | MIC [6, 20] [µg/mL] | MIC ([7]; read-out: MIC) [µg/mL] | MIC [8, 21] [µg/mL] | MIC [9, 22] [µg/mL] | MIC ([10]; read-out: MIC) [µg/mL] | ED50 [11] [mg/kg] | MIC [1, 23] [µg/mL] | MIC [12] [µg/mL] | MIC (Candida albicans A9540 [2]) [µg/mL] | MIC [3, 23] [µg/mL] | MIC [4, 23] [µg/mL] | MIC [5] [µg/mL] | MIC [6, 23] [µg/mL] | MIC [7] [µg/mL] | MIC [8, 23] [µg/mL] | further results |
| --- | --- | --- | --- | --- | --- | --- | --- | --- | --- | --- | --- | --- | --- | --- | --- | --- | --- | --- | --- | --- | --- |
| CC(=O)N1CCN(c2ccc(OCC3COC(Cn4ccnc4)(c4ccc(Cl)cc4Cl)O3)cc2)CC1 (centres unmarked) [Ketoconazole, reference compound] | 3.1 | 50 | 50 | 25 | 100 | 50 | 0.8 | 0.4 | 50 | 0.8 | > 50 | – | – | – | – | – | – | – | – | – | – |
| Cc1cc2c(c(O)c1C(=O)NCC(=O)O)-c1c(cc3c(c1O)C(=O)c1cc(O)cc(O)c1C3=O)[C@H](O)[C@H]2O[C@@H]1O[C@H](C)[C@H](O)[C@H](O[C@@H]2OC[C@@H](O)[C@H](O)[C@H]2O)[C@H]1O [11-O-Dexylosyl-pradimicin T1] | 25 | 6.3 | 3.1 | 3.1 | 12.5 | 12.5 | 6.3 | 6.3 | 3.1 | 12.5 | – | – | – | – | – | – | – | – | – | – | MIC ([12]; read-out: MIC): 3.1 µg/mL |
| Pradimicin T2 | – | – | – | – | – | – | – | – | – | – | – | >100 | 3.1 | 3.1 | 3.1 | 1.6 | 6.3 | 6.3 | 6.3 | 6.3 | MIC [9, 23]: 0.8 µg/mL; MIC [10]: 50 µg/mL; PD50 [11]: >50 mg/kg; LD50 [13]: >600 mg/kg |
| Pradimicin T1 | – | – | – | – | – | – | – | – | – | – | – | 6.3 | 6.3 | 6.3 | 6.3 | 1.6 | 25 | 12.5 | 3.1 | 3.1 | MIC [9, 23]: 3.1 µg/mL; MIC [10]: 6.3 µg/mL; PD50 [11]: 27 mg/kg; LD50 [13]: 300 mg/kg |
| CNC1C(C)OC(OC2c3cc(C)c(C(=O)NC(CO)C(=O)O)c(O)c3-c3c(cc4c(c3O)C(=O)c3cc(O)cc(O)c3C4=O)C2O)C(O)C1OC1OCC(O)C(O)C1O (centres unmarked) [ID, 11-O-Demethylpradimicin FA-1] | – | – | – | – | – | – | – | – | – | – | – | – | – | – | – | – | – | – | – | – | MIC (Candida albicans A9540 [14]): 6.3 µg/mL (≈ 7.48 µM); MIC [15]: 12.5 µg/mL (≈ 14.8 µM); MIC [16]: 3.1 µg/mL (≈ 3.68 µM) |
| C[C@@H]1[C@H](O)[C@@H](C)/C=C/C=C/C=C/C=C/C=C/C=C/C=C/[C@H](O[C@@H]2O[C@H](C)[C@@H](O)[C@H](N)[C@@H]2O)C[C@@H]2O[C@](O)(C[C@@H](O)C[C@@H](O)[C@H](O)CC[C@@H](O)C[C@@H](O)CC(=O)O[C@H]1C)C[C@H](O)[C@H]2C(=O)O [Amphotericin B, reference compound] | – | – | – | – | – | – | – | – | – | – | 0.2 | – | – | – | – | – | – | – | – | – | LD50 ([13]; mouse, in vivo, read-out: LD50): 4.5 mg/kg |
